Measured values taken from PubChem BioAssay (NCI).
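Method: 48-hour compound exposure of cells in 96-well plates, five concentrations, linear interpolation of endpoints. TGI: total growth inhibition.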

What was measured:
Assay in all cases: DTP human tumour cell line panel, 48 h
[1] = test system: NCI-H460 lung
[2] = test system: LXFL 529 NSCLC
[3] = test system: HL-60(TB) leukemia
[4] = test system: NCI-H226 lung
[5] = test system: UACC-62 melanoma
[6] = test system: SK-OV-3 ovarian
[7] = test system: NCI-H522 lung
[8] = test system: SF-295 CNS
[9] = test system: HOP-92 NSCLC
[10] = test system: UO-31 renal
[11] = test system: SNB-75 CNS
[12] = test system: SR leukemia
[13] = test system: M19-MEL melanoma
[14] = test system: HOP-18 NSCLC
[15] = test system: HT29 colon
[16] = test system: CCRF-CEM leukemia
[17] = test system: DLD-1 colon
[18] = test system: NCI-H23 lung
[19] = test system: OVCAR-5 ovarian
[20] = test system: COLO 205 colon
[21] = test system: SW-620 colon
[22] = test system: SNB-19 CNS
[23] = test system: HCC-2998 colon
[24] = test system: U251 CNS
[25] = test system: ACHN renal
[26] = test system: HCT-116 colon
[27] = test system: K-562 leukemia
[28] = test system: OVCAR-8 ovarian
[29] = test system: OVCAR-3 ovarian
[30] = test system: SK-MEL-28 melanoma
[31] = test system: KM12 colon
[32] = test system: UACC-257 melanoma
[33] = test system: MOLT-4 leukemia
[34] = test system: SF-268 CNS
[35] = test system: A549 NSCLC
[36] = test system: TK-10 renal
[37] = test system: SK-MEL-5 melanoma
[38] = test system: HOP-62 NSCLC
[39] = test system: SF-539 CNS
[40] = test system: IGROV1 ovarian
[41] = test system: DU-145 prostate
[42] = test system: MCF7 breast
[43] = test system: OVCAR-4 ovarian
[44] = test system: EKVX NSCLC
[45] = test system: HS 578T breast
[46] = test system: 786-0 renal
[47] = test system: RPMI-8226 leukemia
[48] = test system: M14 melanoma
[49] = test system: SK-MEL-2 melanoma
[50] = test system: SN12C renal
[51] = test system: NCI/ADR-RES ovarian
[52] = test system: MDA-MB-231 breast
[53] = test system: LOX IMVI melanoma
[54] = test system: BT-549 breast
[55] = test system: HCT-15 colon
[56] = test system: T-47D breast
[57] = test system: RXF 393 renal
[58] = test system: MALME-3M melanoma
[59] = test system: A498 renal
[60] = test system: CAKI-1 renal
[61] = test system: MDA-MB-435
[62] = test system: PC-3 prostate
[63] = test system: MDA-N

With `COc1ccc(/C=N/NC(=O)c2sc(=S)n(-c3ccccc3)c2N)cc1` the TGI [1] was > 100 µM, the TGI [2] was > 100 µM and the TGI [3] was > 100 µM. For the same compound, the TGI [4] was > 100 µM, the TGI [5] was > 100 µM and the TGI [6] was > 100 µM. The TGI [7] was > 100 µM, the TGI [8] was > 100 µM and the TGI [9] was 79.5 µM. The TGI [10] was > 100 µM, the TGI [11] was 8.67 µM and the TGI [12] was > 100 µM. For the same compound, the TGI [13] was > 100 µM, the TGI [14] was > 100 µM and the TGI [15] was > 100 µM. For the same compound, the TGI [16] was > 100 µM, the TGI [17] was > 100 µM and the TGI [18] was > 100 µM. For the same compound, the TGI [19] was > 100 µM, the TGI [20] was > 100 µM and the TGI [21] was > 100 µM. For the same compound, the TGI [22] was > 100 µM, the TGI [23] was > 100 µM and the TGI [24] was > 100 µM. The TGI [25] was > 100 µM, the TGI [26] was > 100 µM and the TGI [27] was > 100 µM. The TGI [28] was > 100 µM, the TGI [29] was > 100 µM and the TGI [30] was > 100 µM. For the same compound, the TGI [31] was > 100 µM, the TGI [32] was > 100 µM and the TGI [33] was > 100 µM. The TGI [34] was > 100 µM, the TGI [35] was > 100 µM and the TGI [36] was > 100 µM. The TGI [37] was > 100 µM, the TGI [38] was > 100 µM and the TGI [39] was > 100 µM. For the same compound, the TGI [40] was > 100 µM.
In the case of `CCCCCCCCCCCCCCCCCCNc1ccn(C2OC(COP(=O)(O)OCC3OC(n4cc(C)c(=O)[nH]c4=O)CC3F)C(O)C2O)c(=O)n1` (stereo not drawn), the TGI [1] is reported as 43.9 µM, the TGI [41] is reported as 46.2 µM and the TGI [3] is reported as 19.3 µM. For the same compound, the TGI [4] was 59.5 µM, the TGI [42] was > 64.5 µM and the TGI [5] was 12.6 µM. It also gave a TGI [43] of 42.5 µM, a TGI [44] of 20.7 µM and a TGI [6] of 18 µM. For the same compound, the TGI [7] was 9.04 µM, the TGI [8] was 41.9 µM and the TGI [45] was 50.3 µM. It also gave a TGI [9] of 37.5 µM, a TGI [10] of 43.6 µM and a TGI [11] of 37.6 µM. It also gave a TGI [12] of 5.14 µM, a TGI [46] of 9.52 µM and a TGI [47] of 12.9 µM. The TGI [48] was 30.9 µM, the TGI [15] was > 55 µM and the TGI [49] was 19.4 µM. It also gave a TGI [16] of 12.4 µM, a TGI [50] of 39.7 µM and a TGI [18] of 17.9 µM. The TGI [19] was 6.48 µM, the TGI [20] was 9.53 µM and the TGI [51] was 45.9 µM. It also gave a TGI [21] of 12.3 µM, a TGI [52] of 48.7 µM and a TGI [22] of 14.1 µM. For the same compound, the TGI [53] was 14.9 µM, the TGI [54] was 11 µM and the TGI [23] was 13.5 µM. It also gave a TGI [24] of 15 µM, a TGI [55] of 15.9 µM and a TGI [56] of 44.2 µM. The TGI [25] was > 57.1 µM, the TGI [26] was 42.8 µM and the TGI [57] was 3.84 µM. The TGI [58] was 40.9 µM, the TGI [27] was 42.5 µM and the TGI [28] was 29.3 µM. The TGI [59] was > 60.2 µM, the TGI [29] was 50.5 µM and the TGI [30] was 17.6 µM. It also gave a TGI [31] of 14.3 µM, a TGI [32] of 27.8 µM and a TGI [33] of 15.4 µM. The TGI [60] was 16.8 µM, the TGI [34] was 19.5 µM and the TGI [35] was 46.7 µM. For the same compound, the TGI [36] was 9.9 µM, the TGI [37] was 44.9 µM and the TGI [38] was 33.1 µM. For the same compound, the TGI [61] was 38.9 µM, the TGI [62] was 5.38 µM and the TGI [63] was 38.9 µM. The TGI [39] was 19.9 µM and the TGI [40] was 17.9 µM.
In the case of `O=[N+]([O-])c1ccc2nc(Cl)n[n+]([O-])c2c1`, the TGI [1] is reported as 43.3 µM, the TGI [41] is reported as 31.7 µM and the TGI [3] is reported as 1.36 µM. It also gave a TGI [4] of 42.2 µM, a TGI [42] of 20 µM and a TGI [5] of 27.9 µM. It also gave a TGI [43] of 26.8 µM, a TGI [44] of 39 µM and a TGI [6] of 31.4 µM. The TGI [7] was 25.8 µM, the TGI [8] was 47.9 µM and the TGI [45] was > 100 µM. The TGI [9] was 19.6 µM, the TGI [10] was 30.7 µM and the TGI [11] was 28.2 µM. The TGI [12] was 4.93 µM, the TGI [46] was 22.8 µM and the TGI [47] was 9.1 µM. For the same compound, the TGI [48] was 27.5 µM, the TGI [15] was 49.1 µM and the TGI [49] was 29.2 µM. It also gave a TGI [16] of 2.8 µM, a TGI [50] of 37.4 µM and a TGI [18] of 36.6 µM. The TGI [19] was 31.3 µM, the TGI [20] was 25.2 µM and the TGI [51] was 60.1 µM. For the same compound, the TGI [21] was 35.5 µM, the TGI [52] was 28.3 µM and the TGI [22] was > 61.5 µM. It also gave a TGI [53] of 5.23 µM, a TGI [54] of 29.7 µM and a TGI [23] of 30.3 µM. It also gave a TGI [24] of 31.3 µM, a TGI [55] of 29.7 µM and a TGI [56] of 47.3 µM. The TGI [25] was 27.2 µM, the TGI [26] was 25.8 µM and the TGI [57] was 28.7 µM. The TGI [58] was 29.5 µM, the TGI [27] was 2.74 µM and the TGI [28] was 30.7 µM. It also gave a TGI [59] of 21.2 µM, a TGI [29] of 21.9 µM and a TGI [30] of 34 µM. The TGI [31] was 51.8 µM, the TGI [32] was 29.3 µM and the TGI [33] was 3.34 µM. The TGI [60] was 30.1 µM, the TGI [34] was 30.7 µM and the TGI [35] was 42.6 µM. The TGI [36] was 30.8 µM, the TGI [37] was 20.7 µM and the TGI [38] was 30.9 µM. For the same compound, the TGI [61] was 26.9 µM, the TGI [62] was 28.4 µM and the TGI [63] was 24.9 µM. It also gave a TGI [39] of 25.3 µM and a TGI [40] of 25.6 µM.
